Assay results from patent US12077503B2, “Substituted cyclic amides and their use as herbicides” (FMC CORPORATION, priority 2015, dated 2024).

Key:
Format in all cases: in vivo
[1] = test system: giant foxtail (Setaria faberii); assay: Test A preemergence; settings: Setaria faberi, pre-emergence, 240 h, read-out: Plant response rating, Foxtail, Giant
Procedure, shortened: (§1)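 In a loam soil and sand blend, planted seeds got a preemergence directed soil spray, and young plants at the one- to two-leaf stage, 2–10 cm high, got a postemergence application; ~10 d greenhouse hold; injury rated visually, 0 = none, 100 = complete control.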

[2] = test system: barnyardgrass (Echinochloa crus-galli); assay: Test A preemergence; settings: Echinochloa crus-galli, pre-emergence, 240 h, read-out: Plant response rating, Barnyardgrass
Procedure, shortened: as §1

[3] = test system: Kochia (Kochia scoparia); assay: Test A preemergence; settings: Bassia scoparia, pre-emergence, 240 h, read-out: Plant response rating, Kochia
Procedure, shortened: as §1

[4] = test system: ryegrass, Italian (Italian ryegrass, Lolium multiflorum); assay: Test A preemergence; settings: Lolium multiflorum, pre-emergence, 240 h, read-out: Plant response rating, Ryegrass, Italian
Procedure, shortened: as §1

[5] = test system: pigweed (Amaranthus retroflexus); assay: Test A preemergence; settings: Amaranthus retroflexus, pre-emergence, 240 h, read-out: Plant response rating, Pigweed
[6] = test system: ragweed (common ragweed, Ambrosia elatior); assay: Test A preemergence; settings: Ambrosia artemisiifolia, pre-emergence, 240 h, read-out: Plant response rating, Ragweed
Procedure, shortened: as §1

[7] = test system: giant foxtail (Setaria faberii); assay: Test A postemergence; settings: Setaria faberi, post-emergence, 240 h
Procedure, shortened: as §1

[8] = test system: ryegrass, Italian (Italian ryegrass, Lolium multiflorum); assay: Test A postemergence; settings: Lolium multiflorum, post-emergence, 240 h
Procedure, shortened: as §1

[9] = test system: blackgrass (Alopecurus myosuroides); assay: Test A postemergence; settings: Alopecurus myosuroides, post-emergence, 240 h
Procedure, shortened: as §1

[10] = test system: pigweed (Amaranthus retroflexus); assay: Test A postemergence; settings: Amaranthus retroflexus, post-emergence, 240 h
Procedure, shortened: as §1

[11] = test system: wheat (Triticum aestivum); assay: Test A postemergence; settings: Triticum aestivum, post-emergence, 240 h
Procedure, shortened: as §1

[12] = test system: rice (Oryra sativa); assay: Test B flooded paddy test; settings: Oryza sativa, Flood, 250 g ai/ha; scale of 0 to 100 where 0 is no effect and 100 is complete control; read-out: Rice plant response rating
Procedure, shortened: (§2)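 2-leaf plants; pots flooded 3 cm over soil; cpd added to paddy water; depth held; greenhouse 13–15 d; visual rating vs controls, 0 = no effect, 100 = complete control.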

[13] = test system: barnyardgrass (Echinochloa crus-galli); assay: Test B flooded paddy test; settings: Echinochloa crus-galli, Flood, 250 g ai/ha; scale of 0 to 100 where 0 is no effect and 100 is complete control; read-out: Barnyardgrass plant response rating
Procedure, shortened: as §2

[14] = test system: sedge, umbrella (small-flower umbrella sedge, Cyperus difformis); assay: Test B flooded paddy test; settings: Cyperus difformis, Flood, 250 g ai/ha; scale of 0 to 100 where 0 is no effect and 100 is complete control; read-out: Sedge, Umbrella plant response rating
Procedure, shortened: as §2

[15] = test system: ducksalad (Heteranthera limosa); assay: Test B flooded paddy test; settings: Heteranthera limosa, Flood, 250 g ai/ha; scale of 0 to 100 where 0 is no effect and 100 is complete control; read-out: Ducksalad plant response rating
Procedure, shortened: as §2

[16] = 125 g ai/ha, preemergence, visual rating after approx. 10 d, 0 to 100 scale where 0 is no effect and 100 is complete control
[17] = Preemergence, 31 g ai/ha, 0 to 100 scale (0 no effect, 100 complete control)

With `CSc1ccccc1NC(=O)[C@H]1C(=O)N(C)CC[C@@H]1c1ccc2c(c1)OC(F)(F)O2` [Compound 814] the pest or weed control at 125 g/ha [1, 16] was 0%, the pest or weed control at 31 g/ha [1, 17] was 0% and the pest or weed control at 125 g/ha [2, 16] was 0%. The pest or weed control at 31 g/ha [2, 17] was 0%, the pest or weed control at 125 g/ha [3, 16] was 0% and the pest or weed control at 31 g/ha [3, 17] was 0%. It also gave a pest or weed control at 125 g/ha [4, 16] of 0%, a pest or weed control at 31 g/ha [4, 17] of 0% and a pest or weed control at 125 g/ha [5, 16] of 0%. The pest or weed control at 31 g/ha [5, 17] was 0%, the pest or weed control at 125 g/ha [6, 16] was 0% and the pest or weed control at 31 g/ha [6, 17] was 0%. The pest or weed control at 125 g/ha ([7]; 125 g ai/ha, postemergence, visual injury rating after approximately 10 d, read-out: Foxtail, Giant plant response rating (0 to 100 scale, 0 no effect, 100 complete control)) was 0%, the pest or weed control at 31 g/ha ([7]; Postemergence, 31 g ai/ha, visual injury after approx. 10 d, 0 to 100 scale, 0 no effect, 100 complete control, read-out: Plant response rating, Foxtail, Giant) was 0% and the pest or weed control at 125 g/ha ([8]; 125 g ai/ha, postemergence, visual injury rating after approximately 10 d, read-out: Ryegrass, Italian plant response rating (0 to 100 scale, 0 no effect, 100 complete control)) was 0%. It also gave a pest or weed control at 31 g/ha ([8]; Postemergence, 31 g ai/ha, visual injury after approx. 10 d, 0 to 100 scale, 0 no effect, 100 complete control, read-out: Plant response rating, Ryegrass, Italian) of 0%, a pest or weed control at 125 g/ha ([9]; 125 g ai/ha, postemergence, visual injury rating after approximately 10 d, read-out: Blackgrass plant response rating (0 to 100 scale, 0 no effect, 100 complete control)) of 0% and a pest or weed control at 31 g/ha ([9]; Postemergence, 31 g ai/ha, visual injury after approx. 10 d, 0 to 100 scale, 0 no effect, 100 complete control, read-out: Plant response rating, Blackgrass) of 0%. For the same molecule, the pest or weed control at 125 g/ha ([10]; 125 g ai/ha, postemergence, visual injury rating after approximately 10 d, read-out: Pigweed plant response rating (0 to 100 scale, 0 no effect, 100 complete control)) was 0%, the pest or weed control at 31 g/ha ([10]; Postemergence, 31 g ai/ha, visual injury after approx. 10 d, 0 to 100 scale, 0 no effect, 100 complete control, read-out: Plant response rating, Pigweed) was 0% and the plant injury at 125 g/ha ([11]; 125 g ai/ha, postemergence, visual injury rating after approximately 10 d, read-out: Wheat plant response rating (0 to 100 scale, 0 no effect, 100 complete control)) was 0%. It also gave a plant injury at 31 g/ha ([11]; Postemergence, 31 g ai/ha, visual injury after approx. 10 d, 0 to 100 scale, 0 no effect, 100 complete control, read-out: Plant response rating, Wheat) of 0%, a pest or weed control at 250 g/ha [12] of 0% and a pest or weed control at 250 g/ha [13] of 0%. It also gave a pest or weed control at 250 g/ha [14] of 60% and a pest or weed control at 250 g/ha [15] of 50%.
